What is called Ki is the equilibrium dissociation constant of an inhibitor or competing ligand from its target.

What all share (assay type): functional
The target of assay [1] is Protein kinase C theta type (Homo sapiens, UniProt Q04759). The assay can be described thus: Navigating the Kinome. Panel member name: PRKCQ.
The target of assay [2] is Tyrosine-protein kinase JAK2 (Homo sapiens, UniProt O60674).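 Further: JAK2 tested as one member of a kinase panel.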
Assay [3] concerns the target T1, Serine/threonine-protein kinase TBK1 (Homo sapiens, UniProt Q9UHD2).
T1 sequence (Q9UHD2 whole entry): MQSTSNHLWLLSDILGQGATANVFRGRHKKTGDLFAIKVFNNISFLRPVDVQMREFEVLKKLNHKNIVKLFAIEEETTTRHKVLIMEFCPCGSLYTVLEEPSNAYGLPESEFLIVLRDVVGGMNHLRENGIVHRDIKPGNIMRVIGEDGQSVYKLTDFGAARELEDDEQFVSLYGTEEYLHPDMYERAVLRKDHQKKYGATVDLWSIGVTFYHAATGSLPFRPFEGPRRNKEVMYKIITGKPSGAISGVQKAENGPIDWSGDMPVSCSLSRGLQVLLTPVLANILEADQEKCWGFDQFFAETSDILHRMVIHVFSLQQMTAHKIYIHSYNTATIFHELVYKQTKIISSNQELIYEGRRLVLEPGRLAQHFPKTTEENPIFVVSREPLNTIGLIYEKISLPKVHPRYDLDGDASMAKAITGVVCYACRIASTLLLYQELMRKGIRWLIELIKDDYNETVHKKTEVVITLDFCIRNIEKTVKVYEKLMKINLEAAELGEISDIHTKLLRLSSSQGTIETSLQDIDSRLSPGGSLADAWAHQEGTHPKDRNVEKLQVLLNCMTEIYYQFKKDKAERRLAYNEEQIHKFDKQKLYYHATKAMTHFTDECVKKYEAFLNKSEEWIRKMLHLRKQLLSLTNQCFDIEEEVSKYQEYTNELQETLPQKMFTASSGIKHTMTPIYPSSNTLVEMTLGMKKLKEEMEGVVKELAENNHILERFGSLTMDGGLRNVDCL
Nature of the assay: Navigating the Kinome. Panel member name: TBK1.

For assay [4], the target named is Proto-oncogene tyrosine-protein kinase receptor Ret (Homo sapiens, UniProt P07949).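 Further: measured within a kinome-wide profiling panel, RET as the panel member.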
Assay [5] concerns the target Tyrosine-protein kinase BTK (Homo sapiens, UniProt Q06187).
Assay [6] addresses T2, Tyrosine-protein kinase JAK3 (Homo sapiens, UniProt P52333).
T2 sequence (P52333 whole entry): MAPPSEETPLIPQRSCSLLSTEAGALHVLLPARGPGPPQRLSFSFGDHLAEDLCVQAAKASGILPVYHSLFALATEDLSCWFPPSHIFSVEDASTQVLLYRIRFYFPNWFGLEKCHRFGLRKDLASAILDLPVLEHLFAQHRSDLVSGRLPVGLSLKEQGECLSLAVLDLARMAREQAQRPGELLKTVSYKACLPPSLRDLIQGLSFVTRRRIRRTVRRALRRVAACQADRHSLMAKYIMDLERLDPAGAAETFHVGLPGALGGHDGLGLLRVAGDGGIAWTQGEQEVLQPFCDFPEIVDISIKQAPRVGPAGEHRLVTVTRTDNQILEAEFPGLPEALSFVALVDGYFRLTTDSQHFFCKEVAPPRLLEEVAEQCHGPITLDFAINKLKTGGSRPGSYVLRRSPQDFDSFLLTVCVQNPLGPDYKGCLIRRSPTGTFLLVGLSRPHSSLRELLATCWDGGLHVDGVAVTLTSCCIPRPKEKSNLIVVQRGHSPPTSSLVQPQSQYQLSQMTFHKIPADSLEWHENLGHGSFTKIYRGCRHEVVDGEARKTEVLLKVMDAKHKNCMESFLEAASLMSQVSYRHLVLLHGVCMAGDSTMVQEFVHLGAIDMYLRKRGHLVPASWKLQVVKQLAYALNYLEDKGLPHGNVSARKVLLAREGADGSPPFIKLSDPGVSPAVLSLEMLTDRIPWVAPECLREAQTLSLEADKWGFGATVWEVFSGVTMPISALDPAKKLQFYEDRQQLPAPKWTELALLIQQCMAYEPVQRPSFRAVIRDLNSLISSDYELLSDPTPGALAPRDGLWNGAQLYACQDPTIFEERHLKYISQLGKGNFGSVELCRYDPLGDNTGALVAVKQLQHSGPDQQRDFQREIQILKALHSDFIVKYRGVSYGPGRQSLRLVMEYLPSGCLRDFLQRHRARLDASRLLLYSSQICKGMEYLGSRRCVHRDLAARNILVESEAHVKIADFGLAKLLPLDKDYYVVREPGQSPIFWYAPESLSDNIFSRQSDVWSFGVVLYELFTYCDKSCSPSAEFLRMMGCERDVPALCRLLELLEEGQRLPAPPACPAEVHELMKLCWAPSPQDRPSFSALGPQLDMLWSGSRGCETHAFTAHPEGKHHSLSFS

Assay [7] deals with High affinity nerve growth factor receptor (Homo sapiens, UniProt P04629).
The target in assay [8] is Activated CDC42 kinase 1 (Homo sapiens, UniProt Q07912). The assay can be described thus: Navigating the Kinome. Panel member name: ACK1.
Assay [9] addresses BDNF/NT-3 growth factors receptor (Homo sapiens, UniProt Q16620).
The target in assay [10] is Dual specificity mitogen-activated protein kinase kinase 2 (Homo sapiens, UniProt P36507). Nature of the assay: Navigating the Kinome. Panel member name: MAP2K2.

The source made the active and inactive calls. A value given as a limit tells only on which side of the number the result lay.

Activated CDC42 kinase 1, sequence (Q07912 whole entry): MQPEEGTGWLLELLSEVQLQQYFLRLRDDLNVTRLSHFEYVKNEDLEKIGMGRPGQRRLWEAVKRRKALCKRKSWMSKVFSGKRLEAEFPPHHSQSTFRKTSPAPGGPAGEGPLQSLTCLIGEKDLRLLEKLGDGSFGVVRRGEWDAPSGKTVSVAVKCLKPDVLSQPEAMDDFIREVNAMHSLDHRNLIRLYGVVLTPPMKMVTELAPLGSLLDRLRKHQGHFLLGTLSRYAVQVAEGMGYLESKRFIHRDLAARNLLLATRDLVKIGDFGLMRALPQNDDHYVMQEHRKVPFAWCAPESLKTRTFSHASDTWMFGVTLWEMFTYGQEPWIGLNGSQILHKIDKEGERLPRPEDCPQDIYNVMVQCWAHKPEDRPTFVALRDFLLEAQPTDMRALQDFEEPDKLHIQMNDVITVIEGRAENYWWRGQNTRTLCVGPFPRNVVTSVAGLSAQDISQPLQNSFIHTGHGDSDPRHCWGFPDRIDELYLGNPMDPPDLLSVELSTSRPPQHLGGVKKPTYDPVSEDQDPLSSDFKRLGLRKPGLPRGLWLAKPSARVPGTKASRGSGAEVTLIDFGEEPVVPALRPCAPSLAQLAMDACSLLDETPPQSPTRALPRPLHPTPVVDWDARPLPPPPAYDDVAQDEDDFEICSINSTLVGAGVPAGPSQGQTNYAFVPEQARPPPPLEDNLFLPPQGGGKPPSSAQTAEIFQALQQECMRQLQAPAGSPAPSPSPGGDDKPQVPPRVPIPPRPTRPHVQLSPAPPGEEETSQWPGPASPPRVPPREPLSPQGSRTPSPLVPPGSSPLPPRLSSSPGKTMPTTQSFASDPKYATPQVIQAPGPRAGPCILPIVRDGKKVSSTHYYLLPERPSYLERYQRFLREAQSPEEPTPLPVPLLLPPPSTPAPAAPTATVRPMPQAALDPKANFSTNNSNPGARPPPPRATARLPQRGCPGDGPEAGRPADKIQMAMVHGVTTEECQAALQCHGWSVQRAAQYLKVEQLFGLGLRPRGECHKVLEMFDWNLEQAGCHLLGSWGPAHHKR
BDNF/NT-3 growth factors receptor, sequence (Q16620 whole entry): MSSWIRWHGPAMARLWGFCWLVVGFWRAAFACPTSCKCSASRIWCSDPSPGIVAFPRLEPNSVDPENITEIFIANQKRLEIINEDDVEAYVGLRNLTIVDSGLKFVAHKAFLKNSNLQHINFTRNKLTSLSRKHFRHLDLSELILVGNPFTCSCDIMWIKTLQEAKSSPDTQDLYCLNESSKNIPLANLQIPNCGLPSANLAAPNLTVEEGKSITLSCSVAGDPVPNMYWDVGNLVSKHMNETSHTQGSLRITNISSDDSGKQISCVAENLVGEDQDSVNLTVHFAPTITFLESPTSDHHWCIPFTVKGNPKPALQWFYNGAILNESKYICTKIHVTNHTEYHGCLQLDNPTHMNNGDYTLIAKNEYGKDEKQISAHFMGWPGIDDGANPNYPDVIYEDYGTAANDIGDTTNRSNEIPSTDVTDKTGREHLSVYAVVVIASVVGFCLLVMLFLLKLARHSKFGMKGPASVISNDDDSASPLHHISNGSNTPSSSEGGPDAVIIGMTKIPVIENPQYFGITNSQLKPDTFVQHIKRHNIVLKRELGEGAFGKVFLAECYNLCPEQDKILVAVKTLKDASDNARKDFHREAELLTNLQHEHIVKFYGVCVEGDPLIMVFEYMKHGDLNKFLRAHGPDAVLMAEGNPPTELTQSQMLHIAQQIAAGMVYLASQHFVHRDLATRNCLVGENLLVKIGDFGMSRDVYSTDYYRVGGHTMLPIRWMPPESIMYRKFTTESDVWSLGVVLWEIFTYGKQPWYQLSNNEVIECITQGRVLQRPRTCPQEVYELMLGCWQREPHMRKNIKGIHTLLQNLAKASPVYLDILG
Protein kinase C theta type, sequence (Q04759 whole entry): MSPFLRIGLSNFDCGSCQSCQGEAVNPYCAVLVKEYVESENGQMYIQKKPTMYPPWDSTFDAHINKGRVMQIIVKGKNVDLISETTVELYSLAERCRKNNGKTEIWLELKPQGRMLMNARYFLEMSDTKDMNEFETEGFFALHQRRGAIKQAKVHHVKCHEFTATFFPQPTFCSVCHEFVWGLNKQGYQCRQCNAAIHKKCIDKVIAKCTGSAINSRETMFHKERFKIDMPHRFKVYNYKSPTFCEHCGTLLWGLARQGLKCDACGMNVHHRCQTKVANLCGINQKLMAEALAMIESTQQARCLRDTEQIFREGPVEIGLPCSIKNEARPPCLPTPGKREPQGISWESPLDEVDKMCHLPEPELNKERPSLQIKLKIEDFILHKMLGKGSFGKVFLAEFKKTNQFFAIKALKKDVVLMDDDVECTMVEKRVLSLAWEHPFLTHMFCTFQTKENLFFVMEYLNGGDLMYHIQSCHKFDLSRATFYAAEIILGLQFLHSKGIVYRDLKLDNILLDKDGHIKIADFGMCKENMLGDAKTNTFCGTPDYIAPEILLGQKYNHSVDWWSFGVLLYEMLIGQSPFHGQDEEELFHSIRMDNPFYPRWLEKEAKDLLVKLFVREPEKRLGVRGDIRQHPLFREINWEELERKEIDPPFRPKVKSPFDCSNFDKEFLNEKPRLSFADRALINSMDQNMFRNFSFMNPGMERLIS
Tyrosine-protein kinase JAK2, sequence (O60674 whole entry): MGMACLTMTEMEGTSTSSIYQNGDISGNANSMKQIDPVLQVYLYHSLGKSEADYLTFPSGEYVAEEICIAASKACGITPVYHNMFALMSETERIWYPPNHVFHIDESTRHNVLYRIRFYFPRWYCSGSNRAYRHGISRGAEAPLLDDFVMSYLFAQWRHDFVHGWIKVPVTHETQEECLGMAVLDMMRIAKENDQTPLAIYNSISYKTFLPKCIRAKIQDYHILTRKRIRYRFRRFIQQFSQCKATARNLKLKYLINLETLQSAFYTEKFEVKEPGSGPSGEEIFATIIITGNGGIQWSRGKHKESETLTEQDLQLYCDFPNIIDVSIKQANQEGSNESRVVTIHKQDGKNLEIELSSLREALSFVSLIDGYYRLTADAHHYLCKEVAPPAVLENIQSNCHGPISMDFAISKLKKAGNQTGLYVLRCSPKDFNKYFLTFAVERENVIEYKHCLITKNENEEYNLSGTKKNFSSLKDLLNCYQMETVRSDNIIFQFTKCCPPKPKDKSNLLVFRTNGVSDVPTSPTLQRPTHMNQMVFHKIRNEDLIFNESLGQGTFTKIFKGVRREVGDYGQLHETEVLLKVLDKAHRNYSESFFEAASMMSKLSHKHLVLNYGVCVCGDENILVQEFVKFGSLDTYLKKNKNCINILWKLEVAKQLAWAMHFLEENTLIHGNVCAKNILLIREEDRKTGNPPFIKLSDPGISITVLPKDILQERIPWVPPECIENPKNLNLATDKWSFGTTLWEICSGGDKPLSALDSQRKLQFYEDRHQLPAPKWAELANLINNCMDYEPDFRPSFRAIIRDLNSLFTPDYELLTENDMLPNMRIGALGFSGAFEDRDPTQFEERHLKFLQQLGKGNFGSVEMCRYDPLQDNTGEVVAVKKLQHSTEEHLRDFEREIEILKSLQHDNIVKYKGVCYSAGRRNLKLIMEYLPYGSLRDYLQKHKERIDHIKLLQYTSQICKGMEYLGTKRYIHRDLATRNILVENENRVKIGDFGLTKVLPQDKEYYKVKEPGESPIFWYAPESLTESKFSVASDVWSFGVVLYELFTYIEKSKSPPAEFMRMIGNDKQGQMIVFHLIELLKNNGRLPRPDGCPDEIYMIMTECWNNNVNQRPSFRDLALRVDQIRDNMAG
Dual specificity mitogen-activated protein kinase kinase 2, sequence (P36507 whole entry): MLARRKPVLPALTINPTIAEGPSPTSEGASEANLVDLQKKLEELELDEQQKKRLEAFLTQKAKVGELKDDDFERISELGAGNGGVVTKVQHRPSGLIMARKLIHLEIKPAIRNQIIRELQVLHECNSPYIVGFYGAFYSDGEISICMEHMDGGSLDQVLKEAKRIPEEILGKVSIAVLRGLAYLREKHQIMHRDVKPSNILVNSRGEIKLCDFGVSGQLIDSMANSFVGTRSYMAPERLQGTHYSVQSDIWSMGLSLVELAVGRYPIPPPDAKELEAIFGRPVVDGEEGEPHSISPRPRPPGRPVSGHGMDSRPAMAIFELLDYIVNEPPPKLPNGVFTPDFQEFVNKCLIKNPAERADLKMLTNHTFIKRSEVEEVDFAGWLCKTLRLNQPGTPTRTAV
High affinity nerve growth factor receptor, sequence (P04629 whole entry): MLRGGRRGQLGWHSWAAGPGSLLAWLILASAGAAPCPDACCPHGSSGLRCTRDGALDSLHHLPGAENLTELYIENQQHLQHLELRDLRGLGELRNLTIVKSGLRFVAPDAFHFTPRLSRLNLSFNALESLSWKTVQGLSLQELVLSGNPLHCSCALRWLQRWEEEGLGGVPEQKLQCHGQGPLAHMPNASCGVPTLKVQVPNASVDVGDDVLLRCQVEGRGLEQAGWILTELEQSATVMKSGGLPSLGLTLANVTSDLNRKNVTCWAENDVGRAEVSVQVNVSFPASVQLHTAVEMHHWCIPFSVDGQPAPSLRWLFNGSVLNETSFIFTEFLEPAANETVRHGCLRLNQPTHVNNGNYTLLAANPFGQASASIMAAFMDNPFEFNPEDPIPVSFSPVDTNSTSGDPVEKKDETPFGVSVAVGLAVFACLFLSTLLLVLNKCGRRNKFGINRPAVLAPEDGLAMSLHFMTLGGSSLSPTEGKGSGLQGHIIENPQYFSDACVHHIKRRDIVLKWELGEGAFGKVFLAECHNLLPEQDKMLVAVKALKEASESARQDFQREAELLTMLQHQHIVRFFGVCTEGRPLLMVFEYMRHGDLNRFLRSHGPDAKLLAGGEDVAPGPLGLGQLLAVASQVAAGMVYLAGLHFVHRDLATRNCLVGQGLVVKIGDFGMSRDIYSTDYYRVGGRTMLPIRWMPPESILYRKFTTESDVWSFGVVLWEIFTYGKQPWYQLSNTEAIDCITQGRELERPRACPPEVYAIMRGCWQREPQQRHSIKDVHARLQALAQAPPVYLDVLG

As for `COc1cccc(C(C)NC(=O)c2sc(-c3ccncc3)nc2C)c1` (stereo not given), the Ki in [1] was > 2.51 µM (inactive); in [2] it was > 2.51 µM (inactive); in [3], > 3.16 µM (inactive); in [4], > 3.16 µM (inactive); in assay [5] it was > 6.31 µM (inactive); in assay [6], > 5.01 µM (inactive). Besides, the Ki in assay [7] is > 3.16 µM (inactive); in assay [8] it was > 3.98 µM (inactive); in assay [9], > 3.98 µM (inactive); in [10], > 3.98 µM (inactive).
For `Oc1ccc(-c2nc(-c3ccncc3)c(-c3ccc(F)cc3)[nH]2)cc1` [SB-202190], the Ki was > 2.51 µM (inactive) in assay [1]; > 2.51 µM (inactive) in assay [2]; > 3.16 µM (inactive) in assay [3]; > 3.16 µM (inactive) in [4]; > 6.31 µM (inactive) in [5]; > 5.01 µM (inactive) in assay [6]. Further, the Ki in [7] is > 3.16 µM (inactive); in assay [8] it was > 3.98 µM (inactive); in assay [9], 0.794 µM (active); in assay [10], > 3.98 µM (inactive).
As for `CCCCC(=O)Nc1cc(-c2c[nH]c3ncccc23)cc(Cl)n1`, the Ki in assay [1] is > 2.51 µM (inactive); in assay [2], > 2.51 µM (inactive); in [3], > 3.16 µM (inactive); in assay [4], > 3.16 µM (inactive); in assay [5], > 6.31 µM (inactive); in [6], > 5.01 µM (inactive). Besides, the Ki in assay [7] is > 3.16 µM (inactive); in assay [8], > 3.98 µM (inactive); in [9], > 3.98 µM (inactive); in [10] it was > 3.98 µM (inactive).

Values taken from ChEMBL document CHEMBL1201862, “PubChem BioAssay data set” (2004).
